Laboratory results taken from patent US4619932A, “Novel carbostyril derivatives, process for producing thereof and pharmaceutical composition containing the same” (Otsuka Pharmaceutical Co., Ltd., priority 1980, dated 1986).
Counter-ions that a name gives are not always drawn. Like-named read-outs stand apart in the source and are kept apart here.

Legend:
Halothane anesthesia = Halothane anesthesia increasing activity; assay type: in vivo, mouse (male, ddy-strain); conditions: 16 mg/kg oral, 1 hour before 4% Halothane for 3 minutes; righting reflex
Description: Male mice of ddy-strain a having about 20 g body weight were used. One test group consists of 10 mice. An aqueous Gummi Arabicum suspension of test compound (80 mg of a compound to be tested and 1 g of Gummi Arabicum/100 ml of physiological NaCl solution) was administered orally to each mouse at the dosage of 16 mg of test compound/kg body. One hour after the administration, each mouse was placed in gas respiration chamber (13×13×24 cm) and oxygen gas containing 4% of Halothane (2-brome-2-chloro-1,1,1-trifluoroethane) was flown into the chamber at the velocity of 2/min for 3 minutes. A mouse anaesthetized was taken out from the chamber and the time between the introduction of anesthesia to waking was measured by righting reflex as the index. To mice of control group, 1% Gummi Arabicum aqueous physiological solution was orally administered at the dosage of 0.1 ml/kg body.

[1] = system: jumping behavior induced by Methamphetamine and L-DOPA; experiment: Activity for inhibiting jumping behavior in mouse induced by Methamphetamine and L-DOPA; assay type: in vivo, mouse (male, ddy-strain); conditions: oral, Methamphetamine 4 mg/kg i.p. and L-DOPA 400 mg/kg i.p., positive = 10 or fewer jumps, read-out: ED50 value, inhibition of jumping behavior
Description: (B) Activity for inhibiting jumping behavior in mouse induced by Methamphetamine and L-DOPA
Individual male mice of ddy-strain having a body weight of 17 to 25 g were used. The mice were not fed for 24 hours. One test group consisted of 6 mice. A compound to be tested was administered orally. 40Minutes after the administration 4 mg/kg of Methamphetamine d-N-α-dimethylphenthylamine was intraperitonerally administered, further 15 minutes after the administration of Methamphetamine, 400 mg/kg of L-DOPA was intraperitonerally administered. 60 Minutes after the administration of L-DOPA, (3-(3,4-dihydroxyphenyl)alanine) the mouse was placed in a glass beaker of 2 liters capacity, and the number of jumping of the mouse was recorded. The activity for inhibiting jumping behavior of the test compound was determined as positive in case of number of jumping performed by the administered mouse counted 10 or less. While, the activity for inhibiting jumping behabior of the test compound was determined as negative in case the number of jumping performed by the administered mouse recorded over 10. The effective dosage (ED50 value: mg/kg) of the test compound which gives 3 mice were positive over 6 mice of one test group was calculated. The number of jumping performed by the mouse being administered with physiological saline solution as the reference was 150 to 200 per hour. (Cf. H. Lal, F. C. Colpaert, P. Laduron: European J. Pharmacol., 30, 113-116 (1975)).

epinephrine = experiment: Activity for antagonizing epinephrine in mouse; assay type: in vivo, mouse (male, ddy strain); conditions: oral, 1 hour before epinephrine 40 mg/kg i.p., survival at 24 hours, read-out: ED50 value, dose allowing half the animals to survive
Description: (C) Activity for antagonizing epinephrine in mouse
Individual male mice of ddy strain having 17 to 20 g of body weight were used. The mice were abstained from eating for 24 hours. One test group consist of 10 mice. A compound to be tested was administered orally. One hour after the administration, 40 mg/kg of epinephrine was intraperitonerally administered. […] All of 10 mice administered physiological saline solution as the reference group were dead within a few minutes after the administration of epinephrine. (Cf. Loew, E. R. and Micetich, A., J. Pharmacol. Exp. Ther., 93, 434-443 (1948)).

palpebral ptosis = experiment: Palpebral ptosis test in mouse; assay type: in vivo, mouse (male, ddy-strain); conditions: 64 mg/kg oral, 1 hour; score 0 (wide open eyes) to 8 (eyes completely closed); mean of 10 mice
Description: (D) Activity of palpebral ptosis test in mouse
Individual male mice of ddy-strain having 18 to 20 g of body weight were used. The mice were abstained from eating for 24 hours. One test group consists of 10 mice. […] One hour after the administration, the state of palpebral ptosis of the mouse were observed and evaluated on the basis of the following score system. The mean value was calculated from the scores of 10 mice.
Score Degree of palpebral ptosis
8 Eyes completely closed.

male rats = conditions: rat, in vivo, po
Description: Each of the following compound of the general formula in the present invention was administered orally to male rats to determine the acute toxicity (LD50 mg/kg).

[2] = biological target: retraction of ileum caused by histamine (Cavia porcellus, UniProt P31389); experiment: Antihistaminic activity test in vitro, enucleated ileum of guinea pig; design: species or system guinea pig (male)
Chain of retraction of ileum caused by histamine (P31389 whole entry): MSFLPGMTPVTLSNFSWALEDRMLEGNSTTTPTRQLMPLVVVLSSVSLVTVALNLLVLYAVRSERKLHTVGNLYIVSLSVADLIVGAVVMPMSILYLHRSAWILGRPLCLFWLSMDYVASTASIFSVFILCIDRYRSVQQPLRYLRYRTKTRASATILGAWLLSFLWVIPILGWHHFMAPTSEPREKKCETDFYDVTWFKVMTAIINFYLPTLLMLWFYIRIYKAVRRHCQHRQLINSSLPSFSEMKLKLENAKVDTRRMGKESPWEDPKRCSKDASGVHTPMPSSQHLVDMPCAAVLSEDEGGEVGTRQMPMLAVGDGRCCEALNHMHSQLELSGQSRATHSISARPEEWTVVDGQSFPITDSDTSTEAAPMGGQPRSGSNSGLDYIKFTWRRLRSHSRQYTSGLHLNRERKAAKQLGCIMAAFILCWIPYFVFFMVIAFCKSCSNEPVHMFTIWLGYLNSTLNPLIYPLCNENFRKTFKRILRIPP
Description: (E) Antihistaminic activity test
As to the test method for determining antihistaminic activity of a compound in vitro, a method of using an enucleated ileum of a guinea pig is generally accepted. Antihistaminic activity of the present compounds was conduted according to said method as follows:
A male guinea pig having 300 to 500 g body weight was killed by blood letting. An ileum having length of 15 cm being enucleated from the ileocecal region was dipped into Tyrode's solution (which was prepared from 8.0 g of NaCl, 0.2 g of KCl, 0.2 g of CaCl2, 1.0 g of glucose, 1.0 g of NaHCO3, 0.065 g of NaHPO4.2H2 O and 0.2135 g of MgCl2.6H2 O make 1000 ml in total volume by adding water). Then the tissue of ileum was cut to a length of 2.5 to 3.0 cm and suspended in an organ bath filled with 30 ml of Tyrode's solution. The organ bath was kept a temperature of 36° C. and blowing a mixed gas consisting of 5% of CO2 and 95% of O2 into the bath. 10 Minutes after the blowing, 10^-6M of histamine was added to the bath to examine the sensitivity of the tissue and a reaction curve (control) with respect to the dosage of histamine was obtained. After the dosage of histamine-reaction curve (control) become constant 10^-6 g/ml of a compound to be tested was added to the bath and further histamine was added 5 minutes later to obtain dosage-reaction curve. Retraction of the isotonic was recorded on a pen-recorder through an isotonic transducer (TD-112S manufactured by Nihon Koden). Antihistaminc activity of the test compound was determined as pA2 value by "Van Rossam" method (J. M. Van Rossam: Arch. Inst. Pharmacodyn. Ther., 143, 299 (1963)) in terms of that the maximum retraction of ileum caused by histamine shown in the control curve is 100%.

[3] = 10^-6 g/ml test compound, histamine, Tyrode's solution, 36° C., Van Rossam method, read-out: pA2 (converted)

| SMILES | Acute toxicity (LD50) (male rats) [mg/kg] | Kb [2, 3] [nM] | other results |
| --- | --- | --- | --- |
| O=C1CCc2cc(C(=O)CCCN3CCN(c4ccccc4Cl)CC3)ccc2N1 [Compound 3, 6-{1-Oxo-4-[4-(2-chlorophenyl)-1-piperazinyl]butyl}-3,4-dihydrocarbostyril.monohydrochloride.monohydrate] | 500 | – | Time (minutes) between introduction of anesthesia to waking (Halothane anesthesia): 8.0 min; ED50 [1]: 1.05 mg/kg; ED50 (epinephrine): 6.12 mg/kg; Score obtained (Mean value), degree of palpebral ptosis (palpebral ptosis): 2.0 |
| CN1C(=O)CCc2cc(C(=O)CCN3CCN(c4ccccc4)CC3)ccc21 [Compound 20, 1-Methyl-6-[1-oxo-3-(4-phenyl-1-piperazinyl)propyl]-3,4-dihydrocarbostyril.monooxalate] | 500 | 26.3 | – |
| Cc1cccc(N2CCN(CC=Cc3ccc4c(c3)CCC(=O)N4Cc3ccccc3)CC2)c1 [Compound 21, 1-Benzyl-6-{3-[4-(3-methylphenyl)-1-piperazinyl]-1-propenyl}-3,4-dihydrocarbostyril monooxalate] | – | 49 | – |
| O=C1CCc2c(CCCN3CCN(c4ccccc4)CC3)cccc2N1 [Compound 22, 5-[3-(4-Phenyl-1-piperazinyl)propyl]-3,4-dihydrocarbostyril] | 500 | 97.7 | – |
| Cc1ccc(C2=CCN(CC=Cc3ccc4c(c3)CCC(=O)N4)CC2)cc1 [Compound 23, 6-{3-[4-(4-Methylphenyl)-1,2,5,6-tetrahydropyridyl]-1-propenyl}-3,4-dihydrocarbostyril] | 500 | – | Kb [2]: 15.5 nM |
| O=C1CCc2cc(C(=O)CCN3CCC(Cc4ccccc4)CC3)ccc2N1 [Compound 24] | 500 | 58.9 | – |
